Test results from PubChem BioAssay AID1745844 (Carcinogenic Potency Database (CPDB), 2022).
Active and inactive are the calls of the source. No rule for the calls is given here.

Tested on: rodent lifetime carcinogenesis bioassay, tumor incidence TD50
Experiment: chronic cancer bioassays in animals – CPDB, compiled studies (AID 1745844)

Structure (SMILES): O=NN1CCOCC1
- TD50 (hamster, strain Syrian Golden, females, in drinking water, site: any site (literature study), lesion: several types, types named in the paper, dosed 104 weeks, study length 104 weeks): 1.48 mg/kg/day
- TD50 (hamster, strain Syrian Golden, females, in drinking water, site: larynx, lesion: several types, types named in the paper, dosed 104 weeks, study length 104 weeks): 15.4 mg/kg/day
- TD50 (hamster, strain Syrian Golden, females, in drinking water, site: liver, lesion: several types, types named in the paper, dosed 104 weeks, study length 104 weeks): 51.6 mg/kg/day
- TD50 (hamster, strain Syrian Golden, females, in drinking water, site: respiratory system, lesion: several types, types named in the paper, dosed 104 weeks, study length 104 weeks): 1.35 mg/kg/day
- TD50 (hamster, strain Syrian Golden, females, in drinking water, site: trachea, lesion: mixed-cell mucoepidermoid papilloma, dosed 104 weeks, study length 104 weeks): 11.3 mg/kg/day
- TD50 (hamster, strain Syrian Golden, males, in drinking water, site: any site (literature study), lesion: several types, types named in the paper, dosed 104 weeks, study length 104 weeks): 5.56 mg/kg/day
- TD50 (hamster, strain Syrian Golden, males, in drinking water, site: larynx, lesion: several types, types named in the paper, dosed 104 weeks, study length 104 weeks): 11.5 mg/kg/day
- TD50 (hamster, strain Syrian Golden, males, in drinking water, site: liver, lesion: several types, types named in the paper, dosed 104 weeks, study length 104 weeks): 9.14 mg/kg/day
- TD50 (hamster, strain Syrian Golden, males, in drinking water, site: respiratory system, lesion: several types, types named in the paper, dosed 104 weeks, study length 104 weeks): 5.98 mg/kg/day
- TD50 (hamster, strain Syrian Golden, males, in drinking water, site: trachea, lesion: mixed-cell mucoepidermoid papilloma, dosed 104 weeks, study length 104 weeks): 7.98 mg/kg/day
- TD50 (rat, strain Fischer 344, females, in drinking water, site: adrenal medulla, lesion: pheochromocytoma, dosed 45 weeks, study length 126 weeks): 0.325 mg/kg/day
- TD50 (rat, strain Fischer 344, females, in drinking water, site: adrenal medulla, lesion: pheochromocytoma, dosed 100 weeks, study length 126 weeks): 1.07 mg/kg/day
- TD50 (rat, strain Fischer 344, females, in drinking water, site: esophagus, lesion: several types, types named in the paper, dosed 45 weeks, study length 126 weeks): 1.97 mg/kg/day
- TD50 (rat, strain Fischer 344, females, in drinking water, site: esophagus, lesion: squamous-cell papilloma, dosed 45 weeks, study length 126 weeks): 2.53 mg/kg/day
- TD50 (rat, strain Fischer 344, females, in drinking water, site: liver, lesion: hemangiosarcoma, dosed 45 weeks, study length 126 weeks): 0.666 mg/kg/day
- TD50 (rat, strain Fischer 344, females, in drinking water, site: liver, lesion: hemangiosarcoma, dosed 50 weeks, study length 73 weeks): 0.348 mg/kg/day
- TD50 (rat, strain Fischer 344, females, in drinking water, site: liver, lesion: hemangiosarcoma, dosed 100 weeks, study length 126 weeks): 0.63 mg/kg/day
- TD50 (rat, strain Fischer 344, females, in drinking water, site: liver, lesion: hepatocellular carcinoma, dosed 45 weeks, study length 126 weeks): 0.564 mg/kg/day
- TD50 (rat, strain Fischer 344, females, in drinking water, site: liver, lesion: hepatocellular carcinoma, dosed 50 weeks, study length 73 weeks): 0.0805 mg/kg/day
- TD50 (rat, strain Fischer 344, females, in drinking water, site: liver, lesion: hepatocellular carcinoma, dosed 100 weeks, study length 126 weeks): 0.431 mg/kg/day
- TD50 (rat, strain Fischer 344, females, in drinking water, site: liver, lesion: neoplastic nodule, dosed 45 weeks, study length 126 weeks): 1.28 mg/kg/day
- TD50 (rat, strain Fischer 344, females, in drinking water, site: liver, lesion: neoplastic nodule, dosed 100 weeks, study length 126 weeks): 0.239 mg/kg/day
- TD50 (rat, strain Fischer 344, females, in drinking water, site: liver, lesion: several types, types named in the paper, dosed 45 weeks, study length 126 weeks): 0.14 mg/kg/day
- carcinogen call (rat, strain Fischer 344, females, in drinking water, site: liver, lesion: several types, types named in the paper, dosed 50 weeks, study length 73 weeks): positive
- TD50 (rat, strain Fischer 344, females, in drinking water, site: liver, lesion: several types, types named in the paper, dosed 100 weeks, study length 126 weeks): 0.127 mg/kg/day
- TD50 (rat, strain Fischer 344, females, in drinking water, site: thyroid gland, lesion: c-cell carcinoma, dosed 45 weeks, study length 126 weeks): 0.363 mg/kg/day
- TD50 (rat, strain Fischer 344, females, in drinking water, site: thyroid gland, lesion: follicular-cell adenoma, dosed 100 weeks, study length 126 weeks): 0.581 mg/kg/day
- TD50 (rat, strain Fischer 344, females, in drinking water, site: tongue, lesion: several types, types named in the paper, dosed 45 weeks, study length 126 weeks): 6.54 mg/kg/day
- TD50 (rat, strain Fischer 344, females, in drinking water, site: tongue, lesion: squamous-cell papilloma, dosed 45 weeks, study length 126 weeks): 50.2 mg/kg/day
- TD50 (rat, strain Fischer 344, females, in drinking water, site: tongue, lesion: squamous-cell papilloma, dosed 100 weeks, study length 126 weeks): 3.49 mg/kg/day

Structure (SMILES): CC(=O)Nc1ccc(OCC(O)CNC(C)C)cc1 (stereo unspecified)
- carcinogen call (mouse, strain AP Alderly Park, females, several routes, site: liver, lesion: one or several types, types not named, dosed 78 weeks, study length 78 weeks): negative (inactive)
- carcinogen call (mouse, strain AP Alderly Park, females, several routes, site: lung, lesion: one or several types, types not named, dosed 78 weeks, study length 78 weeks): negative (inactive)
- TD50 (mouse, strain AP Alderly Park, males, several routes, site: liver, lesion: one or several types, types not named, dosed 78 weeks, study length 78 weeks): 24300 mg/kg/day (inactive)
- TD50 (mouse, strain AP Alderly Park, males, several routes, site: lung, lesion: one or several types, types not named, dosed 78 weeks, study length 78 weeks): 383 mg/kg/day (inactive)
- carcinogen call (rat, strain Alpk:APfSD, females, in feed, site: liver, lesion: one or several types, types not named, dosed 104 weeks, study length 104 weeks): negative (inactive)
- carcinogen call (rat, strain Alpk:APfSD, males, in feed, site: liver, lesion: one or several types, types not named, dosed 104 weeks, study length 104 weeks): negative (inactive)
- TD50 (rat, strain Alpk:APfSD, males, in feed, site: pituitary gland, lesion: one or several types, types not named, dosed 104 weeks, study length 104 weeks): 23.9 mg/kg/day (inactive)
- TD50 (rat, strain Alpk:APfSD, males, in feed, site: testis, lesion: one or several types, types not named, dosed 104 weeks, study length 104 weeks): 194 mg/kg/day (inactive)

Structure (SMILES): C=CCOC(=O)c1ccccc1C(=O)OCC=C
- TD50 (mouse, strain B6C3F1, females, by gavage, site: any site (literature study), lesion: several types, types named in the paper, dosed 103 weeks, study length 106 weeks): 10100 mg/kg/day
- TD50 (mouse, strain B6C3F1, females, by gavage, site: forestomach, lesion: papilloma, NOS, dosed 103 weeks, study length 106 weeks): 2730 mg/kg/day
- TD50 (mouse, strain B6C3F1, females, by gavage, site: liver, lesion: hepatocellular adenoma + hepatocellular carcinoma + neoplastic nodule, dosed 103 weeks, study length 106 weeks): 2930 mg/kg/day
- TD50 (mouse, strain B6C3F1, females, by gavage, site: lung, lesion: alveolar/bronchiolar adenoma + alveolar/bronchiolar carcinoma, dosed 103 weeks, study length 106 weeks): 4180 mg/kg/day
- TD50 (mouse, strain B6C3F1, males, by gavage, site: all sites, lesion: malignant lymphoma, NOS, dosed 103 weeks, study length 106 weeks): 816 mg/kg/day
- TD50 (mouse, strain B6C3F1, males, by gavage, site: any site (literature study), lesion: several types, types named in the paper, dosed 103 weeks, study length 106 weeks): 717 mg/kg/day
- TD50 (mouse, strain B6C3F1, males, by gavage, site: forestomach, lesion: papilloma, NOS, dosed 103 weeks, study length 106 weeks): 2460 mg/kg/day
- TD50 (mouse, strain B6C3F1, males, by gavage, site: liver, lesion: hepatocellular adenoma + hepatocellular carcinoma + neoplastic nodule, dosed 103 weeks, study length 106 weeks): 6680 mg/kg/day
- TD50 (mouse, strain B6C3F1, males, by gavage, site: liver, lesion: hepatocellular adenoma, dosed 103 weeks, study length 106 weeks): 2450 mg/kg/day
- TD50 (mouse, strain B6C3F1, males, by gavage, site: lung, lesion: alveolar/bronchiolar adenoma + alveolar/bronchiolar carcinoma, dosed 103 weeks, study length 106 weeks): 8520 mg/kg/day
- TD50 (rat, strain Fischer 344, females, by gavage, site: all sites, lesion: mononuclear-cell leukemia, dosed 103 weeks, study length 104 weeks): 138 mg/kg/day
- TD50 (rat, strain Fischer 344, females, by gavage, site: any site (literature study), lesion: several types, types named in the paper, dosed 103 weeks, study length 104 weeks): 163 mg/kg/day
- TD50 (rat, strain Fischer 344, males, by gavage, site: any site (literature study), lesion: several types, types named in the paper, dosed 103 weeks, study length 104 weeks): 2990 mg/kg/day (inactive)

Structure (SMILES): C/C=C/C=C/C(=O)O
- TD50 (mouse, strain ASH-CS1, females, in feed, site: liver, lesion: hyperplastic nodule, dosed 80 weeks, study length 80 weeks): 362000 mg/kg/day (inactive)
- carcinogen call (mouse, strain ASH-CS1, females, in feed, site: lung, lesion: adenoma, dosed 80 weeks, study length 80 weeks): negative (inactive)
- carcinogen call (mouse, strain ASH-CS1, males, in feed, site: liver, lesion: hyperplastic nodule, dosed 80 weeks, study length 80 weeks): negative (inactive)
- carcinogen call (mouse, strain ASH-CS1, males, in feed, site: lung, lesion: adenoma, dosed 80 weeks, study length 80 weeks): negative (inactive)
- carcinogen call (rat, strain Wistar, females, in feed, site: any site (literature study), lesion: malignant tumor, dosed 104 weeks, study length 104 weeks): negative (inactive)
- carcinogen call (rat, strain Wistar, females, in feed, site: any site (literature study), lesion: several types, types named in the paper, dosed 104 weeks, study length 104 weeks): negative (inactive)
- TD50 (rat, strain Wistar, females, in feed, site: liver, lesion: hemangioma, dosed 104 weeks, study length 104 weeks): 34000 mg/kg/day (inactive)
- TD50 (rat, strain Wistar, males, in feed, site: any site (literature study), lesion: malignant tumor, dosed 104 weeks, study length 104 weeks): 51400 mg/kg/day (inactive)
- TD50 (rat, strain Wistar, males, in feed, site: any site (literature study), lesion: several types, types named in the paper, dosed 104 weeks, study length 104 weeks): 33900 mg/kg/day (inactive)
- carcinogen call (rat, strain Wistar, males, in feed, site: liver, lesion: hemangioma, dosed 104 weeks, study length 104 weeks): negative (inactive)
